Reference: ChEMBL document CHEMBL5727880, “Amide compounds as kinase inhibitors, compositions and methods of treatment” (2020)

Target: Rho-associated protein kinase 2 (Homo sapiens, UniProt O75116)
Test: Kinase Inhibition Assay: The following assay protocol is for measuring the phosphorylation of a peptide substrate (FAM-[…]-OH wherein FAM is carboxyfluorescein). The peptide is >98% purity by Capillary Electrophoresis. The peptide is phosphorylated by the protein kinase ROCK1 or ROCK2. The ROCK1 or ROCK2 enzyme, substrate, and cofactors (ATP and Mg2+) are combined in a well of a microtiter plate and incubated for 3 hours at 25° C. in the presence or absence of an inhibitor compound. At the end of the incubation, the reaction is quenched by the addition of an EDTA-containing buffer. The substrate and product are separated and quantified electrophoretically using the microfluidic-based LABCHIP® 3000 Drug Discovery System from Caliper Life Sciences (Hopkinton, Mass.).The components of the assay mixture are:100 mM HEPES, pH 7.50.1% BSA0.01% Triton X-1001 mM DTT10 mM MgCl210 μM Sodium Orthovanadate10 LM Beta-Glycerophosphate5 μM ATP (for ROCK1) or 7 μM ATP (for ROCK2)1% DMSO (from compound)1.25 μM FAM-[…]-OH3 nM ROCK1 or 2.5 nM ROCK2 enzymeSubstrate and product peptides present in each sample are separated electrophoretically using the LABCHIP® 3000 capillary electrophoresis instrument. As substrate and product peptides are separated two peaks of fluorescence are observed. […]

Rho-associated protein kinase 2, sequence (O75116 whole entry): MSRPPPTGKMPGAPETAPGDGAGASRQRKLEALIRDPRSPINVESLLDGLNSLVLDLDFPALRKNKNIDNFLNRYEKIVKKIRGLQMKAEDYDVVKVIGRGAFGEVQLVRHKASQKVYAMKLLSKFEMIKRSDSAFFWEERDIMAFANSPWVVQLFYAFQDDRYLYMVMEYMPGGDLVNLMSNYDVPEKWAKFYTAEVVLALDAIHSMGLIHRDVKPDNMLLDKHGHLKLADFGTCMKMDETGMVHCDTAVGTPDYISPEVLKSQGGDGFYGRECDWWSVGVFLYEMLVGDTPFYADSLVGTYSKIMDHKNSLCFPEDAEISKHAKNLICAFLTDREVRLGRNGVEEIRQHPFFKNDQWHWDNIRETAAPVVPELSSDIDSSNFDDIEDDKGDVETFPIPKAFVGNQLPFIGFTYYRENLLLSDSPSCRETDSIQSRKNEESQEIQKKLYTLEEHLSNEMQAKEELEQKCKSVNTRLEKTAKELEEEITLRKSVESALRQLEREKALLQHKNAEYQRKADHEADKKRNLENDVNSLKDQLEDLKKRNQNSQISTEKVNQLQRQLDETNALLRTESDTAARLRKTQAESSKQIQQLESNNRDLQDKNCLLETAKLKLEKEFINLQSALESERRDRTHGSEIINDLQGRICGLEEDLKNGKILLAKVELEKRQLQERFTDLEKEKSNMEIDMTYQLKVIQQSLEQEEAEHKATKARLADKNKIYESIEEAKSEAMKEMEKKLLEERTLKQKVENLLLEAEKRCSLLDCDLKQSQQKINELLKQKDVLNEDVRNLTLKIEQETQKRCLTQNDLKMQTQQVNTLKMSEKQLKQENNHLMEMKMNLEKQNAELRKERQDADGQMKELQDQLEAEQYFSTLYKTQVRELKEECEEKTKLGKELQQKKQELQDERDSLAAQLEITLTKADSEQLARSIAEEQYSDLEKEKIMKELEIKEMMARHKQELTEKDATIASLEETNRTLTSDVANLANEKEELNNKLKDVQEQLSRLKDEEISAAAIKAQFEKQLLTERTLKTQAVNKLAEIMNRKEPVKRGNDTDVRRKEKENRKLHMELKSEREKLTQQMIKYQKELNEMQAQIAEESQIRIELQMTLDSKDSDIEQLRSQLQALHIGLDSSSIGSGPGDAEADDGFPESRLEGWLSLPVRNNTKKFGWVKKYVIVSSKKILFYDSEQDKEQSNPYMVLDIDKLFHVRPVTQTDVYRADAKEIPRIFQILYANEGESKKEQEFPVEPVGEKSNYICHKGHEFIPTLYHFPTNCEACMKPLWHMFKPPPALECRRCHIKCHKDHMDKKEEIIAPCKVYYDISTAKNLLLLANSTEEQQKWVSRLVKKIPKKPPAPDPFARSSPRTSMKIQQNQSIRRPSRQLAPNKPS

- IC50: 1.2 nM
Structure (SMILES): C[C@@H](NC(=O)c1ccc(-c2ccncc2)cc1)c1cccc(C(=O)NC2CCCC2)c1
